Experimental findings from ChEMBL document CHEMBL1201862, “PubChem BioAssay data set” (2004) are described below.

Structures can show the parent of a compound that is named as a salt.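 Values below derive from 48-hour exposures of cells grown in 96-well plates, with endpoints linearly interpolated between the two concentrations bracketing the appropriate inhibition level. At the GI50, growth is halved.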 Active and inactive are the calls of the source. No stated cut-off is given here; in the data, active = GI50 up to about 1.1 µM and inactive = higher.

Some test systems named below: NCI-H23; SN12C; RPMI-8226; RXF 393; HT-29; BT-549; K562; U-251; HOP-62; COLO 205; SK-MEL-2; NCI-H226; SF-268; SNB-75; EKVX; SK-MEL-28; CCRF-CEM; HL-60; DMS-273; M19-MEL.
What all share (assay): growth of human tumour cells (NCI), 48 h

Take `COc1cc2c(cc1OC)C1Cc3cc(OC)c(OC)cc3C(C2)O1`: the GI50 is > 100 µM (inactive) with NCI-H23; > 100 µM (inactive) in the test on SN12C; 35.2 µM (inactive) in the test with RPMI-8226; > 100 µM (inactive) in the test with RXF 393; > 100 µM (inactive) with HT-29; > 100 µM (inactive) in the test with BT-549. The GI50 was 46.7 µM (inactive) with K562; > 100 µM (inactive) with U-251; > 100 µM (inactive) in the test on HOP-62; > 100 µM (inactive) in the test on COLO 205; > 100 µM (inactive) in the test on SK-MEL-2; > 100 µM (inactive) in the test on NCI-H226. In addition, the GI50 in the test on SF-268 was > 100 µM (inactive); in the test on SNB-75, > 100 µM (inactive); in the test with EKVX it was > 100 µM (inactive); with SK-MEL-28, > 100 µM (inactive); in the test with CCRF-CEM it was 60.1 µM (inactive).
Turning to `Cc1cc(C)c(NC(=O)/C=C/c2ccccc2)c(C)c1`, the GI50 is > 100 µM (inactive) with NCI-H23; 36.1 µM (inactive) in the test with HL-60; > 100 µM (inactive) in the test on RPMI-8226; > 100 µM (inactive) in the test with RXF 393; > 100 µM (inactive) in the test with HT-29; > 100 µM (inactive) in the test on BT-549. Also, the GI50 with K562 was 32.6 µM (inactive); in the test on U-251 it was > 100 µM (inactive); with HOP-62, 38.9 µM (inactive); in the test on SK-MEL-2 it was > 100 µM (inactive); in the test with NCI-H226, > 100 µM (inactive); in the test with SF-268, > 100 µM (inactive). The GI50 with SNB-75 is 3.93 µM (inactive); in the test with EKVX, > 100 µM (inactive); with SK-MEL-28 it was > 100 µM (inactive); in the test with CCRF-CEM, > 100 µM (inactive).
With `N#CCCN(c1ccc(/C=N/c2cccc([N+](=O)[O-])c2)cc1)S(=O)(=O)c1ccccc1`, the GI50 in the test on NCI-H23, in the test with HL-60, in the test with SN12C, with RPMI-8226, in the test on HT-29 and with K562 was > 100 µM (inactive) throughout. Also, the GI50 in the test with HOP-62 is > 100 µM (inactive); in the test on COLO 205, > 100 µM (inactive); in the test on SK-MEL-2 it was > 100 µM (inactive); in the test with NCI-H226, 56.9 µM (inactive); with DMS-273 it was > 100 µM (inactive); with SF-268, > 100 µM (inactive). Also, the GI50 in the test on SNB-75 was 75.2 µM (inactive); in the test on EKVX, > 100 µM (inactive); with SK-MEL-28, > 100 µM (inactive); with CCRF-CEM, > 100 µM (inactive).
On to `O=C(N[C@H]1c2ccsc2/C(=N/O)[C@H]1O)C(F)(F)F`, for which the GI50 in the test with NCI-H23, in the test on HL-60, with SN12C, in the test with RXF 393, with HT-29 and in the test on BT-549 was > 100 µM (inactive) each time. Further, the GI50 in the test with K562, with U-251, in the test on HOP-62, in the test with COLO 205, with SK-MEL-2 and with NCI-H226 was > 100 µM (inactive) in each case. For the same molecule, the GI50 with SF-268, in the test on SNB-75, in the test with EKVX, in the test with SK-MEL-28 and in the test on CCRF-CEM was > 100 µM (inactive) throughout.
For the molecule `CSCSCC(CO)NC(=O)/C(C)=C\c1c(C)[nH]c(=O)[nH]c1=O` (centres undefined), the GI50 with NCI-H23, in the test with HL-60, in the test with SN12C, in the test with RPMI-8226, with RXF 393 and in the test on HT-29 was > 250 µM (inactive) in each case. For the same molecule, the GI50 with M19-MEL, with K562, with U-251, with HOP-62, with COLO 205 and in the test on SK-MEL-2 was > 250 µM (inactive) each time. Further, the GI50 in the test on NCI-H226, in the test with DMS-273, in the test with SF-268, in the test on SNB-75, in the test on EKVX and in the test with SK-MEL-28 was > 250 µM (inactive) each time. The GI50 in the test with CCRF-CEM was > 250 µM (inactive).
For `CCCc1c(-c2ccccc2)[nH]c2ccccc2c1=O`, the GI50 with NCI-H23 is > 100 µM (inactive); in the test with HL-60 it was > 100 µM (inactive); in the test on SN12C, 89.1 µM (inactive); with RPMI-8226 it was 54.6 µM (inactive); with RXF 393 it was > 100 µM (inactive); with HT-29, 22.6 µM (inactive). Also, the GI50 is 40.5 µM (inactive) in the test on BT-549; 20.8 µM (inactive) in the test on K562; 51.3 µM (inactive) in the test with U-251; 34.1 µM (inactive) in the test on HOP-62; > 100 µM (inactive) in the test on COLO 205; 27.2 µM (inactive) in the test on SK-MEL-2. Also, the GI50 is > 100 µM (inactive) in the test with NCI-H226; 72.4 µM (inactive) in the test with SF-268; 37.6 µM (inactive) with EKVX; 33.7 µM (inactive) with SK-MEL-28; 41.3 µM (inactive) with CCRF-CEM.
For `CCCCn1cc[n+](-c2nc3ccccc3n2C)c1`, the GI50 in the test on NCI-H23, with HL-60, with SN12C, in the test on RPMI-8226, in the test with RXF 393 and in the test with HT-29 was > 100 µM (inactive) throughout. The GI50 in the test on K562, with U-251, with HOP-62, in the test on SK-MEL-2, in the test on NCI-H226 and in the test with DMS-273 was > 100 µM (inactive) each time. The GI50 in the test with SF-268 is > 10 µM (inactive); with SNB-75, 45.4 µM (inactive); in the test with EKVX it was > 100 µM (inactive); in the test with CCRF-CEM, > 100 µM (inactive).
Take `c1ccc(Nc2nnc(-c3nsc4ccccc34)o2)cc1`: the GI50 in the test on NCI-H23 was 91.4 µM (inactive); with HL-60, > 100 µM (inactive); with SN12C it was 71.1 µM (inactive); in the test with RPMI-8226, > 100 µM (inactive); in the test on RXF 393, 51.5 µM (inactive); in the test on HT-29, > 100 µM (inactive). Also, the GI50 with M19-MEL was > 100 µM (inactive); in the test with K562 it was 59.6 µM (inactive); with U-251, 31.4 µM (inactive); in the test with HOP-62, 32.9 µM (inactive); with COLO 205 it was > 100 µM (inactive); in the test on SK-MEL-2, > 100 µM (inactive). The GI50 in the test on DMS-273 is 46.6 µM (inactive); in the test with SF-268, > 100 µM (inactive); in the test on SNB-75 it was 34.9 µM (inactive); with EKVX, 51.3 µM (inactive); in the test on SK-MEL-28, > 100 µM (inactive); with CCRF-CEM, 71.1 µM (inactive).
As for `CNCCC=C1c2ccccc2CCc2ccccc21` [NORTRIPTYLINE HYDROCHLORIDE], the GI50 was 15.7 µM (inactive) in the test with NCI-H23; 16.1 µM (inactive) in the test on HL-60; 15.4 µM (inactive) in the test on SN12C; 12.6 µM (inactive) in the test with RPMI-8226; 9.35 µM (inactive) in the test on RXF 393; 4.69 µM (inactive) with HT-29. The GI50 was 15.5 µM (inactive) with BT-549; 11.4 µM (inactive) with K562; 14.3 µM (inactive) with U-251; 14.7 µM (inactive) with HOP-62; 7.62 µM (inactive) in the test with COLO 205; 15.4 µM (inactive) in the test on SK-MEL-2. In addition, the GI50 was 22.1 µM (inactive) with NCI-H226; 15.5 µM (inactive) in the test on SF-268; 6.47 µM (inactive) in the test on SNB-75; 15.2 µM (inactive) in the test with EKVX; 13.5 µM (inactive) in the test on SK-MEL-28; 12.5 µM (inactive) with CCRF-CEM.
Take `C[C@]12CC[C@H]3[C@@H](CC=C4C[C@@H](O)CC[C@@]43C)[C@@H]1C/C(=C\c1ccc([N+](=O)[O-])cc1)[C@@H]2O`: the GI50 with NCI-H23 is 9.98 µM (inactive); in the test with HL-60 it was 2.65 µM (inactive); in the test on SN12C, 10.6 µM (inactive); in the test on RPMI-8226, 7.48 µM (inactive); with RXF 393 it was 9.71 µM (inactive); in the test with HT-29, 5.83 µM (inactive). Also, the GI50 in the test with BT-549 is 14.6 µM (inactive); in the test with K562, 5.68 µM (inactive); with HOP-62 it was 11.7 µM (inactive); with COLO 205, 15.1 µM (inactive); in the test on SK-MEL-2 it was 19.8 µM (inactive); in the test with NCI-H226, 16.8 µM (inactive). The GI50 was 26.1 µM (inactive) in the test on SF-268; 17.4 µM (inactive) in the test on SNB-75; 10.6 µM (inactive) in the test on EKVX; 19.3 µM (inactive) with SK-MEL-28; 5.14 µM (inactive) with CCRF-CEM.
For `COc1ccc(/C=C2/C(=O)N(C(=O)c3ccccc3O)N=C2C)cc1`, the GI50 is 0.114 µM (active) in the test with NCI-H23; 0.292 µM (active) in the test on HL-60; 0.65 µM (active) in the test with SN12C; 0.895 µM (active) in the test with RPMI-8226; < 0.0446 µM (active) in the test on RXF 393; 4.57 µM (inactive) with HT-29. The GI50 in the test with M19-MEL is 0.542 µM (active); in the test on BT-549 it was 0.105 µM (active); with K562, 0.0492 µM (active); in the test with U-251, 0.0692 µM (active); in the test on HOP-62, 0.356 µM (active); in the test with COLO 205 it was 18.2 µM (inactive). In addition, the GI50 with SK-MEL-2 was 0.327 µM (active); in the test with NCI-H226 it was 1.35 µM (inactive); in the test with SF-268, 0.202 µM (active); in the test on EKVX it was 0.608 µM (active); with SK-MEL-28, 9.4 µM (inactive); with CCRF-CEM, 0.124 µM (active).
